Source: patent US20170176477A1 (Metanomics Health GmbH, priority 2012, published 2017)
Where two headings read alike, the source gives them in different places.

How the values were obtained:
[1] = rat, in vivo
Description: (§1) Animals accessed feed and water ad libitum.
(§2) For mass spectrometry-based MxP™ Broad Profiling analyses samples were extracted by a proprietary method yielding a lipid and polar fraction which were used for GC-MS (gas chromatography-mass spectrometry) and LC-MS/MS (liquid chromatography-MS/MS) analyses, respectively. For GC-MS analytics the samples were sequentially derivatized before measurement and the non-polar fraction was treated with methanol under acidic conditions to yield the fatty acid methyl esters derived from both free fatty acids and hydrolyzed complex lipids. The non-polar and polar fractions were further derivatized before GC-MS analysis (Roessner et al., Technical advance: simultaneous analysis of metabolites in potato tuber by gas chromatography-mass spectrometry. Plant J. 2000; 23:131-42). In LC-MS/MS analysis a metanomics proprietary technology was applied which allows target and high sensitivity MRM (Multiple Reaction Monitoring) profiling in parallel to full scan analyses (patent WO2003073464). For LC-MS analysis, both fractions were reconstituted in appropriate solvent mixtures. HPLC (high-performance liquid chromatography) was performed on reversed phase separation columns. Data were normalized by the corresponding median of reference samples which derived from a pool formed from aliquots of all samples to account for inter- and intra-instrumental variation. Therefore, pool-normalized semi-quantitative metabolite data were obtained.

[2] = Metabolite profiling of plasma (GC-MS and LC-MS/MS) of rats treated with APAP vs. vehicle; conditions: for plasma metabolite in treated (1250 mg/kg) vs. untreated animals: FIG. 1, rats, 1250 mg/kg APAP vs. vehicle, most obvious at 6 and 24 hours; for 1250 mg vs. 0 mg (6 h) Ratio / 1250 mg vs. 0 mg (3 d) Ratio / 1250 mg vs. 0 mg (7 d) Ratio: rat plasma metabolite level, treated with 1250 mg/kg APAP vs. untreated, ANOVA; for 1250 mg vs. 0 mg (3 d) Ratio: 3 days; for 1250 mg vs. 0 mg (7 d) Ratio: 7 days
Description: as §1, §2

[3] = tested on: mouse/rat liver tissue; conditions: after administration of hepatotoxic doses of carbon tetrachloride; cited from earlier work
[4] = tested on: mouse liver tissue; conditions: cited from earlier work

| Molecule | differences between the test and the control samples [1] | plasma metabolite in treated (1250 mg/kg) vs. untreated animals [2] | 1250 mg vs. 0 mg (6 h) Ratio [2] | 1250 mg vs. 0 mg (3 d) Ratio [2] | 1250 mg vs. 0 mg (7 d) Ratio [2] | plasma metabolite in treated (1250 mg/kg) vs. untreated animals [1] | putrescine in mouse/rat liver tissue [3] | tissue levels of putrescine ([4]; 18 hours after administration of acetaminophen) | putrescine in mouse liver tissue after treatment with acetaminophen ([4]; mouse liver tissue) | tissue levels of putrescine ([4]; tissue samples obtained after 6 and 12 hours) |
| --- | --- | --- | --- | --- | --- | --- | --- | --- | --- | --- |
| CC(=O)Nc1ccc(O)cc1 [APAP, N-(4-hydroxyphenyl)acetamide, reference compound] | no statistically significant differences |  |  |  |  |  |  |  |  |  |
| NCCOP(=O)(O)O [O-Phosphoethanolamine, o-phosphoethanolamine] |  | increased | 1.52 | 1.06 | 1.07 |  |  |  |  |  |
| NCCCCN [Putrescine, Butane-1,4-diamine] |  |  |  |  |  | increased | increased | Elevated | increased | no elevated putrescine levels |
| O[C@H]1[C@H](O)[C@@H](O)[C@H](O)[C@@H](O)[C@H]1O [myo-Inositol, lipid fraction, myo-inositol] |  | increased | 1.28 | 1.04 | 1.02 |  |  |  |  |  |
| Lysophosphatidylcholine (C18:1) |  | decreased | 0.95 | 1.10 | 1.02 |  |  |  |  |  |
